Several values for one entry are separate records, joined by “and”; a condition that tells them apart may be missing. Equal entries are not always repeated. ± gives the uncertainty stated by the source.
Tests used:
[1] = xn = mol fraction of the nth substance listed

CCCCCCCCCCCC(=O)OC
100 kPa
Settings	viscosity
293.15 K	3.12 ± 0.066 mPa·s and 3.128 ± 0.13 mPa·s
298.15 K	2.778 ± 0.059 mPa·s
303.15 K	2.491 ± 0.053 mPa·s
308.15 K	2.25 ± 0.048 mPa·s
318.15 K	1.877 ± 0.13 mPa·s
323.15 K	1.712 ± 0.036 mPa·s and 1.717 ± 0.13 mPa·s

OCC(O)CO
Settings	viscosity
293.15 K, 100 kPa	1360 ± 210 mPa·s
294 K, 101 kPa	1390 ± 430 mPa·s
298 K, 101 kPa	946.5 ± 110 mPa·s
298.15 K, 100 kPa	860 ± 130 mPa·s
298.15 K, 101.33 kPa	803.7 ± 87 mPa·s
303 K, 101 kPa	611.3 ± 66 mPa·s and 409.6 ± 29 mPa·s
303.15 K, 100 kPa	542 ± 80 mPa·s
308 K, 101 kPa	413.9 ± 44 mPa·s
308.15 K, 101 kPa	405.8 ± 19 mPa·s
308.15 K, 101.33 kPa	351.5 ± 37 mPa·s
313 K, 101 kPa	285.5 ± 30 mPa·s
313.15 K, 100 kPa	217 ± 32 mPa·s
313.15 K, 101 kPa	231 ± 24 mPa·s and 284 ± 10 mPa·s and 289.4 ± 95 mPa·s
318 K, 101 kPa	213.7 ± 22 mPa·s
318.15 K, 101 kPa	182.5 ± 5.9 mPa·s and 176.2 ± 5 mPa·s
318.15 K, 101.33 kPa	157.1 ± 16 mPa·s
323 K, 101 kPa	141 ± 15 mPa·s
323.15 K, 101 kPa	142 ± 4 mPa·s and 153.8 ± 48 mPa·s

CCCC[n+]1ccc(C)cc1.[Cl][Al-]([Cl])([Cl])[Cl] + Cc1ccccc1
[1], 101 kPa, x2 = 0.38
Settings	viscosity [mPa·s]
298.15 K	13.8 ± 0.6
303.15 K	12.8 ± 0.6
308.15 K	10.8 ± 0.5
313.15 K	9.4 ± 0.4
318.15 K	8.5 ± 0.4
323.15 K	7.6 ± 0.3

COc1ccc(C=O)cc1 + Cc1ccccc1
viscosity [mPa·s], [1], 101 kPa
Settings	x1 = 0.0899	x1 = 0.1818	x1 = 0.2759	x1 = 0.3721	x1 = 0.4706	x1 = 0.5714	x1 = 0.6747	x1 = 0.7805	x1 = 0.8889
303.15 K	0.5703 ± 0.16	0.6449 ± 0.18	0.7185 ± 0.19	0.9019 ± 0.23	1.099 ± 0.28	1.356 ± 0.33	1.551 ± 0.38	2.61 ± 0.61	2.857 ± 0.66
308.15 K	0.5414 ± 0.15	0.6128 ± 0.17	0.6929 ± 0.19	0.8502 ± 0.22	1.018 ± 0.26	1.258 ± 0.31	1.388 ± 0.34	2.218 ± 0.52	2.505 ± 0.59
313.15 K	0.512 ± 0.15	0.5751 ± 0.16	0.6448 ± 0.18	0.7809 ± 0.21	0.9332 ± 0.24	1.122 ± 0.28	1.259 ± 0.31	2.011 ± 0.48	2.165 ± 0.51
318.15 K	0.4586 ± 0.13	0.5216 ± 0.15	0.5862 ± 0.16	0.7004 ± 0.19	0.8327 ± 0.22	0.9898 ± 0.25	1.098 ± 0.28	1.65 ± 0.4	1.825 ± 0.44

COc1ccc(C=O)cc1 + Cc1ccccc1O
[1], 308.15 K, 101 kPa
Settings	viscosity [mPa·s]
x1 = 0.7753	3.815 ± 0.029
x1 = 0.8859	3.475 ± 0.026

CCCCCCC(=O)O + ClC(Cl)(Cl)Cl
[1], 298.15 K, 101 kPa
Settings	viscosity [mPa·s]
x1 = 0.06	0.99 ± 0.026
x1 = 0.12	1.08 ± 0.028
x1 = 0.17	1.175 ± 0.031
x1 = 0.23	1.271 ± 0.033
x1 = 0.44	1.767 ± 0.046
x1 = 0.54	2.046 ± 0.053
x1 = 0.64	2.362 ± 0.062
x1 = 0.83	3.015 ± 0.078

FC(F)(F)C(F)(F)Cl + FC(F)Cl
Settings	viscosity [mPa·s]
[1], 298.15 K, 101 kPa, x2 = 0.63	0.16 ± 0.02

Clc1cccc(Cl)c1 + Nc1cccc(Cl)c1
viscosity [mPa·s], [1], 100 kPa
Settings	x2 = 0.1079	x2 = 0.2255	x2 = 0.3102	x2 = 0.4128	x2 = 0.5135	x2 = 0.6122	x2 = 0.7094	x2 = 0.8047	x2 = 0.8908
303.15 K	1.313 ± 0.011	1.712 ± 0.013	1.998 ± 0.015	2.341 ± 0.017	2.675 ± 0.019	2.999 ± 0.021	3.318 ± 0.024	3.627 ± 0.026	3.905 ± 0.028
308.15 K	1.225 ± 0.01	1.581 ± 0.012	1.836 ± 0.014	2.142 ± 0.016	2.439 ± 0.018	2.729 ± 0.02	3.012 ± 0.022	3.286 ± 0.024	3.532 ± 0.026
313.15 K	1.141 ± 0.01	1.455 ± 0.012	1.678 ± 0.013	1.946 ± 0.015	2.208 ± 0.017	2.462 ± 0.019	2.708 ± 0.021	2.946 ± 0.023	3.162 ± 0.024
318.15 K	1.055 ± 0.01	1.326 ± 0.011	1.519 ± 0.013	1.752 ± 0.014	1.975 ± 0.016	2.193 ± 0.018	2.405 ± 0.019	2.611 ± 0.021	2.795 ± 0.023

CCOc1ccccc1 + Nc1ccccc1
viscosity [mPa·s], [1], 101 kPa
Settings	x1 = 0.09206	x1 = 0.1748	x1 = 0.2667	x1 = 0.3716	x1 = 0.4789	x1 = 0.5934	x1 = 0.7132	x1 = 0.8542
293.35 K	3.64 ± 0.04	3.17 ± 0.04	2.75 ± 0.03	2.39 ± 0.03	2.1 ± 0.02	1.84 ± 0.019	1.63 ± 0.017	1.428 ± 0.014
302.75 K	2.7 ± 0.03	2.38 ± 0.03	2.115 ± 0.022	1.87 ± 0.019	1.67 ± 0.017	1.495 ± 0.015	1.335 ± 0.013	1.169 ± 0.012
313.15 K	2.08 ± 0.02	1.865 ± 0.018	1.675 ± 0.016	1.5 ± 0.015	1.355 ± 0.013	1.225 ± 0.012	1.106 ± 0.011	0.982 ± 0.01

CC(=O)N(C(C)C)C(C)C + O
[1], 298.16 K, 101 kPa
Settings	viscosity [mPa·s]
x2 = 0.0812	2.4 ± 0.02
x2 = 0.2041	2.83 ± 0.03
x2 = 0.3933	3.61 ± 0.03
x2 = 0.5827	4.68 ± 0.04
x2 = 0.6893	5.21 ± 0.04
x2 = 0.7296	5.3 ± 0.04
x2 = 0.7747	5.26 ± 0.04
x2 = 0.8218	4.96 ± 0.04
x2 = 0.856	4.59 ± 0.04

CC(C)(C)N1CCCC1=O + O
[1], 298.16 K, 101 kPa
Settings	viscosity [mPa·s]
x1 = 0.1105	3.47 ± 0.03
x1 = 0.261	4.04 ± 0.03
x1 = 0.4035	4.76 ± 0.04
x1 = 0.5487	5.49 ± 0.04
x1 = 0.6233	5.79 ± 0.04
x1 = 0.6749	5.86 ± 0.04
x1 = 0.7189	5.81 ± 0.05
x1 = 0.7798	5.44 ± 0.05
x1 = 0.8652	4.22 ± 0.04

CC(C)[C@H](N)C(=O)[O-].[Na+] + O
viscosity [mPa·s], [1], 101 kPa
Settings	x1 = 0.004484	x1 = 0.008927	x1 = 0.01333	x1 = 0.0177	x1 = 0.02202	x1 = 0.02631
293.15 K	1.165 ± 0.011	1.356 ± 0.012	1.571 ± 0.013	1.816 ± 0.014	2.087 ± 0.016	2.385 ± 0.018
303.15 K	0.919 ± 0.011	1.057 ± 0.011	1.214 ± 0.012	1.382 ± 0.013	1.573 ± 0.014	1.786 ± 0.015
313.15 K	0.747 ± 0.01	0.85 ± 0.011	0.969 ± 0.011	1.094 ± 0.011	1.233 ± 0.012	1.387 ± 0.013
323.15 K	0.621 ± 0.01	0.702 ± 0.01	0.793 ± 0.01	0.889 ± 0.011	0.994 ± 0.011	1.11 ± 0.012

Source: the CheMixHub viscosity set
